{"source": "patent US20240158348A1", "about": "“HERBICIDAL CYCLIC AMIDES N-SUBSTITUTED WITH A HALOALKYLSULFONYLANILIDE GROUP” (FMC Corporation, priority 2021, published 2024)", "key": {"corn (Zea mays) [1]": {"test_system": "corn (Zea mays)", "assay": "Test C postemergence, corn", "assay_type": "in vivo"}, "[2]": {"test_system": "ryegrass, Italian (Italian ryegrass, Lolium multiflorum)", "assay": "Test C postemergence, Italian ryegrass", "assay_type": "in vivo", "how_it_was_run": "(§1)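 Ratings run from 0, meaning no effect, up to 100, meaning complete control, judged by eye against untreated plants. Treatment was a directed soil spray before emergence or a postemergence spray on 2–10 cm seedlings, with evaluation 10 or 12 days later.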"}, "[3]": {"test_system": "blackgrass (Alopecurus myosuroides)", "assay": "Test C postemergence, blackgrass", "assay_type": "in vivo", "details": "31 g ai/ha Postemergence; visual injury, 0 to 100 scale (0 no effect, 100 complete control)", "how_it_was_run": "as §1"}, "[4]": {"test_system": "sedge, umbrella (small-flower umbrella sedge, Cyperus difformis)", "assay": "Test D flooded paddy test, umbrella sedge", "assay_type": "in vivo", "set-up": "key: 0 = no effect, 100 = complete control", "details": "250 g ai/ha, Flood; applied to paddy water at 2-leaf stage; visual rating after 13 days; scale 0 (no effect) to 100 (complete control)", "how_it_was_run": "(§2)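 Test compounds applied directly to paddy water after pots were flooded to 3 cm above soil, with plants at 2-leaf stage; depth held throughout. Greenhouse for 13 days, then visual rating versus controls on 0–100 scale (0 no effect, 100 complete control); dash means no result.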"}, "soybean (Glycine max) [5]": {"test_system": "soybean (Glycine max)", "assay": "Test C preemergence, soybean", "assay_type": "in vivo", "details": "0 is no effect, 100 is complete control", "how_it_was_run": "as §1"}, "[6]": {"test_system": "horseweed (Erigeron canadensis)", "assay": "Test C postemergence, horseweed", "assay_type": "in vivo", "how_it_was_run": "as §1"}, "[7]": {"test_system": "goosegrass (Eleusine indica)", "assay": "Test C preemergence, goosegrass", "assay_type": "in vivo", "details": "0 is no effect, 100 is complete control", "how_it_was_run": "(§3)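 Corn, ragweed and goosegrass were sown in loam/sand and given a preemergence directed soil spray of compounds in a non-phytotoxic solvent with surfactant. Galium was sprayed postemergence at 2–10 cm height, one- to two-leaf stage. After 10 or 12 days in a greenhouse, injury was rated visually against untreated controls on a 0 (no effect) to 100 (complete control) scale.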"}, "[8]": {"test_system": "pigweed, palmer (palmer amaranth, Amaranthus palmeri)", "assay": "Test C preemergence, palmer amaranth", "assay_type": "in vivo", "details": "0 is no effect, 100 is complete control", "how_it_was_run": "as §1"}, "[9]": {"test_system": "pigweed, palmer (palmer amaranth, Amaranthus palmeri)", "assay": "Test C postemergence, palmer amaranth", "assay_type": "in vivo", "how_it_was_run": "as §1"}, "corn (Zea mays) [10]": {"test_system": "corn (Zea mays)", "assay": "Test C preemergence, corn", "assay_type": "in vivo", "details": "0 is no effect, 100 is complete control", "how_it_was_run": "as §3"}, "[11]": {"test_system": "blackgrass (Alopecurus myosuroides)", "assay": "Test C preemergence, blackgrass", "assay_type": "in vivo", "details": "0 is no effect, 100 is complete control", "how_it_was_run": "as §1"}, "[12]": {"test_system": "goosegrass (Eleusine indica)", "assay": "Test C postemergence, goosegrass", "assay_type": "in vivo", "how_it_was_run": "as §1"}, "[13]": {"test_system": "oat, wild (wild oat, Avena fatua)", "assay": "Test C preemergence, wild oat", "assay_type": "in vivo", "details": "0 is no effect, 100 is complete control", "how_it_was_run": "as §1"}, "[14]": {"test_system": "barnyardgrass (Echinochloa crusgalli)", "assay": "Test D flooded paddy test, barnyardgrass", "assay_type": "in vivo", "set-up": "key: 0 = no effect, 100 = complete control", "details": "250 g ai/ha, Flood; applied to paddy water at 2-leaf stage; visual rating after 13 days; scale 0 (no effect) to 100 (complete control)", "how_it_was_run": "as §2"}, "soybean (Glycine max) [15]": {"test_system": "soybean (Glycine max)", "assay": "Test C postemergence, soybean", "assay_type": "in vivo"}, "[16]": {"test_system": "ryegrass, Italian (Italian ryegrass, Lolium multiflorum)", "assay": "Test C preemergence, Italian ryegrass", "assay_type": "in vivo", "details": "0 is no effect, 100 is complete control", "how_it_was_run": "as §1"}, "kochia (Bassia scoparia) [17]": {"test_system": "kochia (Bassia scoparia)", "assay": "Test C postemergence, kochia", "assay_type": "in vivo", "how_it_was_run": "as §1"}, "[18]": {"test_system": "ragweed (common ragweed, Ambrosia artemisiifolia)", "assay": "Test C preemergence, ragweed", "assay_type": "in vivo", "details": "0 is no effect, 100 is complete control", "how_it_was_run": "as §3"}, "kochia (Bassia scoparia) [19]": {"test_system": "kochia (Bassia scoparia)", "assay": "Test C preemergence, kochia", "assay_type": "in vivo", "details": "0 is no effect, 100 is complete control", "how_it_was_run": "as §1"}, "[20]": {"test_system": "foxtail, giant (giant foxtail, Setaria faberi)", "assay": "Test C postemergence, giant foxtail", "assay_type": "in vivo"}, "[21]": {"test_system": "foxtail, giant (giant foxtail, Setaria faberi)", "assay": "Test C preemergence, giant foxtail", "assay_type": "in vivo", "details": "0 is no effect, 100 is complete control", "how_it_was_run": "as §1"}, "[22]": {"test_system": "ducksalad (Heteranthera limosa)", "assay": "Test D flooded paddy test, ducksalad", "assay_type": "in vivo", "set-up": "key: 0 = no effect, 100 = complete control", "details": "250 g ai/ha, Flood; applied to paddy water at 2-leaf stage; visual rating after 13 days; scale 0 (no effect) to 100 (complete control)", "how_it_was_run": "as §2"}, "[23]": {"test_system": "ragweed (common ragweed, Ambrosia artemisiifolia)", "assay": "Test C postemergence, ragweed", "assay_type": "in vivo", "how_it_was_run": "as §1"}, "[24]": {"test_system": "galium (catchweed bedstraw, Galium aparine)", "assay": "Test C postemergence, galium", "assay_type": "in vivo"}, "rice (Oryza sativa)": {"test_system": "rice (Oryza sativa)", "assay": "Test D flooded paddy test, rice", "assay_type": "in vivo", "set-up": "key: 0 = no effect, 100 = complete control", "details": "250 g ai/ha, Flood; applied to paddy water at 2-leaf stage; visual rating after 13 days; scale 0 (no effect) to 100 (complete control)", "how_it_was_run": "as §2"}, "[25]": {"test_system": "blackgrass (Alopecurus myosuroides)", "assay": "Test C postemergence, blackgrass", "assay_type": "in vivo", "details": "125 g ai/ha Postemergence; 0 is no effect, 100 is complete control"}, "[26]": {"test_system": "wheat (Triticum aestivum)", "assay": "Test C preemergence, wheat", "assay_type": "in vivo", "details": "0 is no effect, 100 is complete control"}, "[27]": {"test_system": "wheat (Triticum aestivum)", "assay": "Test C postemergence, wheat", "assay_type": "in vivo", "how_it_was_run": "as §1"}, "[28]": {"details": "31 g ai/ha Postemergence, visual injury, 0 to 100 scale (0 no effect, 100 complete control)"}, "[29]": {"details": "125 g ai/ha Postemergence, 0 is no effect, 100 is complete control"}}}
{"compound": "C=CCO/N=C1\\CCN(c2cc(NS(=O)(=O)C(F)(F)F)c(C)cc2C)C1=O", "note": "[Compound 11]", "values": [{"measurement": "Corn plant response rating", "setting": "corn (Zea mays) [1]; [28]", "value": 90}, {"measurement": "Plant response rating (0 to 100 scale), Corn", "setting": "corn (Zea mays) [1]; [29]", "value": 100}, {"measurement": "Ryegrass, Italian plant response rating", "setting": "[2]; [28]", "value": 0}, {"measurement": "Plant response rating (0 to 100 scale), Ryegrass, Italian", "setting": "[2]; [29]", "value": 30}, {"measurement": "Blackgrass plant response rating", "setting": "[3]", "value": 40}, {"measurement": "Plant response rating, Sedge, Umbrella", "setting": "[4]", "value": 100}, {"measurement": "Plant response rating (0 to 100 scale), Soybean", "setting": "soybean (Glycine max) [5]; 31 g ai/ha Preemergence", "value": 50}, {"measurement": "Plant response rating (0 to 100 scale), Soybean", "setting": "soybean (Glycine max) [5]; 125 g ai/ha Preemergence", "value": 90}, {"measurement": "Horseweed plant response rating", "setting": "[6]; [28]", "value": 20}, {"measurement": "Plant response rating (0 to 100 scale), Horseweed", "setting": "[6]; [29]", "value": 70}, {"measurement": "Plant response rating (0 to 100 scale), Goosegrass", "setting": "[7]; 31 g ai/ha Preemergence", "value": 100}, {"measurement": "Plant response rating (0 to 100 scale), Goosegrass", "setting": "[7]; 125 g ai/ha Preemergence", "value": 100}, {"measurement": "Plant response rating (0 to 100 scale), Pigweed, Palmer", "setting": "[8]; 31 g ai/ha Preemergence", "value": 70}, {"measurement": "Plant response rating (0 to 100 scale), Pigweed, Palmer", "setting": "[8]; 125 g ai/ha Preemergence", "value": 100}, {"measurement": "Pigweed, Palmer plant response rating", "setting": "[9]; [28]", "value": 40}, {"measurement": "Plant response rating (0 to 100 scale), Pigweed, Palmer", "setting": "[9]; [29]", "value": 90}, {"measurement": "Plant response rating (0 to 100 scale), Corn", "setting": "corn (Zea mays) [10]; 31 g ai/ha Preemergence", "value": 50}, {"measurement": "Plant response rating (0 to 100 scale), Corn", "setting": "corn (Zea mays) [10]; 125 g ai/ha Preemergence", "value": 100}, {"measurement": "Plant response rating (0 to 100 scale), Blackgrass", "setting": "[11]; 31 g ai/ha Preemergence", "value": 60}, {"measurement": "Plant response rating (0 to 100 scale), Blackgrass", "setting": "[11]; 125 g ai/ha Preemergence", "value": 100}, {"measurement": "Goosegrass plant response rating", "setting": "[12]; [28]", "value": 90}, {"measurement": "Plant response rating (0 to 100 scale), Goosegrass", "setting": "[12]; [29]", "value": 100}, {"measurement": "Plant response rating (0 to 100 scale), Oat, Wild", "setting": "[13]; 31 g ai/ha Preemergence", "value": 30}, {"measurement": "Plant response rating (0 to 100 scale), Oat, Wild", "setting": "[13]; 125 g ai/ha Preemergence", "value": 100}, {"measurement": "Plant response rating, Barnyardgrass", "setting": "[14]", "value": 25}, {"measurement": "Soybean plant response rating", "setting": "soybean (Glycine max) [15]; [28]", "value": 100}, {"measurement": "Plant response rating (0 to 100 scale), Soybean", "setting": "soybean (Glycine max) [15]; [29]", "value": 100}, {"measurement": "Plant response rating (0 to 100 scale), Ryegrass, Italian", "setting": "[16]; 31 g ai/ha Preemergence", "value": 40}, {"measurement": "Plant response rating (0 to 100 scale), Ryegrass, Italian", "setting": "[16]; 125 g ai/ha Preemergence", "value": 90}, {"measurement": "melting point", "value": "184 to 187", "unit": "°C"}, {"measurement": "Kochia plant response rating", "setting": "kochia (Bassia scoparia) [17]; [28]", "value": 40}, {"measurement": "Plant response rating (0 to 100 scale), Kochia", "setting": "kochia (Bassia scoparia) [17]; [29]", "value": 90}, {"measurement": "Plant response rating (0 to 100 scale), Ragweed", "setting": "[18]; 31 g ai/ha Preemergence", "value": 80}, {"measurement": "Plant response rating (0 to 100 scale), Ragweed", "setting": "[18]; 125 g ai/ha Preemergence", "value": 90}, {"measurement": "Plant response rating (0 to 100 scale), Kochia", "setting": "kochia (Bassia scoparia) [19]; 31 g ai/ha Preemergence", "value": 80}, {"measurement": "Plant response rating (0 to 100 scale), Kochia", "setting": "kochia (Bassia scoparia) [19]; 125 g ai/ha Preemergence", "value": 100}, {"measurement": "Foxtail, Giant plant response rating", "setting": "[20]; [28]", "value": 60}, {"measurement": "Plant response rating (0 to 100 scale), Foxtail, Giant", "setting": "[20]; [29]", "value": 90}, {"measurement": "Plant response rating (0 to 100 scale), Foxtail, Giant", "setting": "[21]; 31 g ai/ha Preemergence", "value": 100}, {"measurement": "Plant response rating (0 to 100 scale), Foxtail, Giant", "setting": "[21]; 125 g ai/ha Preemergence", "value": 100}, {"measurement": "Plant response rating, Ducksalad", "setting": "[22]", "value": 100}, {"measurement": "Ragweed plant response rating", "setting": "[23]; [28]", "value": 60}, {"measurement": "Plant response rating (0 to 100 scale), Ragweed", "setting": "[23]; [29]", "value": 80}, {"measurement": "Galium plant response rating", "setting": "[24]; [28]", "value": 80}, {"measurement": "Plant response rating (0 to 100 scale), Galium", "setting": "[24]; [29]", "value": 100}, {"measurement": "Plant response rating, Rice", "setting": "rice (Oryza sativa)", "value": 45}, {"measurement": "Plant response rating (0 to 100 scale), Blackgrass", "setting": "[25]", "value": 90}, {"measurement": "Plant response rating (0 to 100 scale), Wheat", "setting": "[26]; 31 g ai/ha Preemergence", "value": 90}, {"measurement": "Plant response rating (0 to 100 scale), Wheat", "setting": "[26]; 125 g ai/ha Preemergence", "value": 100}, {"measurement": "Wheat plant response rating", "setting": "[27]; [28]", "value": 80}, {"measurement": "Plant response rating (0 to 100 scale), Wheat", "setting": "[27]; [29]", "value": 90}]}
